# Reference: paper PMC3076737 (Journal of medicinal chemistry, 2010)
# Columns and labels:
# CB1 receptor [1] = target: T1, CB1 receptor (Homo sapiens, UniProt P21554); assay type: cell-based; conditions: data not shown
# CB1 receptor [2] = target: T1, CB1 receptor; assay type: binding; conditions: data not shown
# CB1 receptor [3] = target: T1, CB1 receptor; test: GTP-γ-S assay of compounds 3 and 4, preparation not stated, data not shown; assay type: biochemical
# CB1 receptor [4] = target: T1, CB1 receptor; test: Competitive displacement binding vs [3H]CP55,940 in hCB1 membranes; conditions: both radioligands
# human CB2 receptor = human CB2 receptor (Homo sapiens, UniProt P34972); test: Competitive displacement binding vs [3H]CP55,940 in hCB2 membranes; conditions: read-out: Displacement vs. 3H-CP55,940: Ki (nM) in hCB2; Table 2
# Chain of human CB2 receptor (P34972 whole entry): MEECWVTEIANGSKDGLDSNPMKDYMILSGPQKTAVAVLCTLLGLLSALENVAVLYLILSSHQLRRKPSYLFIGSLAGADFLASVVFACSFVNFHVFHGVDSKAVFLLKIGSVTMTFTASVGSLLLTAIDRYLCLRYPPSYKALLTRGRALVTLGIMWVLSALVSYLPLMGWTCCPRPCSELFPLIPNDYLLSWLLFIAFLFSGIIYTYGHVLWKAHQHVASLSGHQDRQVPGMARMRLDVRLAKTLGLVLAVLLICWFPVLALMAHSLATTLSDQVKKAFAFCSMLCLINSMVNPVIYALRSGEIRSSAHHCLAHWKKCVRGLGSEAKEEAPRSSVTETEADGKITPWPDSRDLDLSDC
# T1 sequence (P21554 whole entry): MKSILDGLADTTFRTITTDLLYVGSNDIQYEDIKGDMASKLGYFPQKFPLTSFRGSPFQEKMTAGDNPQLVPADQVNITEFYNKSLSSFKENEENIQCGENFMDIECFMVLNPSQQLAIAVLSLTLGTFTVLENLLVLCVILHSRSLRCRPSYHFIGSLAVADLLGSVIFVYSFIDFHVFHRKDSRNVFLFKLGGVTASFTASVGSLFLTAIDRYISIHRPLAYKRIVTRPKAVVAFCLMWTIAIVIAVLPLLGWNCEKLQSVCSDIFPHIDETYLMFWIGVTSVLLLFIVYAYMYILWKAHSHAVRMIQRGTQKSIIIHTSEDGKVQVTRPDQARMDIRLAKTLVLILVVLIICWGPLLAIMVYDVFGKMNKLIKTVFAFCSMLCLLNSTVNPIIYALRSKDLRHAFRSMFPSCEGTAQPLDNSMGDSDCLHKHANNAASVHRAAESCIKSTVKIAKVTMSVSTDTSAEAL
Structure (SMILES),Activity in calcium assay (CB1 receptor [1]),Affinity in radiolabeled binding (CB1 receptor [2]),Activity in GTP-γ-S assay (CB1 receptor [3]),Ki (human CB2 receptor) [nM],other results
"Cc1c(C(=O)NCCOCCOCCOCCNC(=O)c2nn(-c3ccc(Cl)cc3Cl)c(-c3ccc(Cl)cc3)c2C)nn(-c2ccc(Cl)cc2Cl)c1-c1ccc(Cl)cc1 [Compound 3, 5-(4-chlorophenyl)-N-{13-[5-(4-chlorophenyl)-1-(2,4-dichlorophenyl)-4-methyl-1H-pyrazol-3-yl]-13-oxo-3,6,9-trioxa-12-azatridec-1-yl}-1-(2,4-dichlorophenyl)-4-methyl-1H-pyrazole-3-carboxamide]",inactive,low affinity,inactive,–,–
"Cc1c(C(=O)NCC(=O)NCC(=O)NCCN)nn(-c2ccc(Cl)cc2Cl)c1-c1ccc(Cl)cc1 [Compound 4, N-{[5-(4-chlorophenyl)-1-(2,4-dichlorophenyl)-4-methyl-1H-pyrazol-3-yl]carbonyl}glycyl-N-(2-aminoethyl)glycinamide]",inactive,low affinity,inactive,–,–
"Cc1c(C(=O)NCCCCCCCNCCCCCCCNC(=O)c2nn(-c3ccc(Cl)cc3Cl)c(-c3ccc(Cl)cc3)c2C)nn(-c2ccc(Cl)cc2Cl)c1-c1ccc(Cl)cc1 [Compound 5d, N,N′-(iminodiheptane-7,1-diyl)bis[5-(4-chlorophenyl)-1-(2,4-dichlorophenyl)-4-methyl-1H-pyrazole-3-carboxamide]]",–,–,–,–,Affinity higher than the corresponding monovalent control (7d) (CB1 receptor [4]): ~4 fold
"Cc1c(C(=O)NCCCCCCCCCN(C)CCCCCCCCCNC(=O)c2nn(-c3ccc(Cl)cc3Cl)c(-c3ccc(Cl)cc3)c2C)nn(-c2ccc(Cl)cc2Cl)c1-c1ccc(Cl)cc1 [Compound 6c, N,N′-[(methylimino)dinonane-9,1-diyl]bis[5-(4-chlorophenyl)-1-(2,4-dichlorophenyl)-4-methyl-1H-pyrazole-3-carboxamide]]",–,–,–,> 2500,–
"Cc1c(C(=O)NCCCCCCCCCCCN(C)CCCCCCCCCCCNC(=O)c2nn(-c3ccc(Cl)cc3Cl)c(-c3ccc(Cl)cc3)c2C)nn(-c2ccc(Cl)cc2Cl)c1-c1ccc(Cl)cc1 [Compound 6d, N,N′-[(methylimino)diundecane-11,1-diyl]bis[5-(4-chlorophenyl)-1-(2,4-dichlorophenyl)-4-methyl-1H-pyrazole-3-carboxamide]]",–,–,–,> 2500,–
"Cc1c(C(=O)NCCCCCN(C)CCCCCN)nn(-c2ccc(Cl)cc2Cl)c1-c1ccc(Cl)cc1 [Compound 8a, N-{5-[(5-aminopentyl)(methyl)amino]pentyl}-5-(4-chlorophenyl)-1-(2,4-dichlorophenyl)-4-methyl-1H-pyrazole-3-carboxamide]",–,–,–,> 2500,–
